Results on eleven compounds are retold here after publication PMC9467586, “Development of novel 9-O-substituted-13-octylberberine derivatives as potential anti-hepatocellular carcinoma agents” (Journal of Enzyme Inhibition and Medicinal Chemistry, 2022).

In one data set the test system is HepG2 cells. Briefly: In vitro antiproliferative MTT assay, HepG2 cells. Format: cell-based, human. As to conditions: Homo sapiens, 72 h, mean ± SD (n = 3), read-out: IC50 (antiproliferative activity against HepG2 cells). How it is done: HepG2, Sk-Hep-1, Huh-7, Hep3B and L-02 cells were purchased from Nanjing Key Gen Biotech Co. Ltd. (Nanjing, China). The cytotoxicity of test compounds was determined using an MTT assay. Briefly, the cell lines were incubated at 37 °C in a humidified 5% CO2 incubator for 24 h in 96-microwell plates. After medium removal, 100 μL of culture medium with 0.1% DMSO containing test compounds at different concentrations was added to each well and incubated at 37 °C for another 72 h. The MTT (5 mg/mL in PBS) was added and incubated for another 4 h, the optical density was detected with a microplate reader at 490 nm. The IC50 values were calculated according to the dose-dependent curves. All the experiments were repeated in at least three independent experiments.

Some results are limits rather than exact numbers.

One may read the IC50 as the midpoint of a concentration-inhibition curve. As to `COc1ccc2c(Cc3ccccc3)c3[n+](cc2c1OC)CCc1cc2c(cc1-3)OCO2` [Compound 3a, 13-Benzyl-9,10-dimethoxy-5,6-dihydro-[1,3]dioxolo[4,5-g]isoquinolino[3,2-a]isoquinolin-7-ium bromide], in the data set on HepG2 cells, the IC50 was greater than 50 µM.
On to `CCCCCCc1c2[n+](cc3c(OC)c(OC)ccc13)CCc1cc3c(cc1-2)OCO3` [Compound 3b, 13-Hexyl-9,10-dimethoxy-5,6-dihydro-[1,3]dioxolo[4,5-g]isoquinolino[3,2-a]isoquinolin-7-ium chloride], for which the 50% inhibitory concentration (IC50) with HepG2 cells came out at 6.14 ± 0.57 µM.
As to `CCCCCCCCCCc1c2[n+](cc3c(OC)c(OC)ccc13)CCc1cc3c(cc1-2)OCO3` [Compound 3d, 13-Decyl-9,10-dimethoxy-5,6-dihydro-[1,3]dioxolo[4,5-g]isoquinolino[3,2-a]isoquinolin-7-ium chloride], the IC50 in the data set on HepG2 cells amounted to 4.45 ± 0.34 µM.
On to `CCCCCCCCCCCCc1c2[n+](cc3c(OC)c(OC)ccc13)CCc1cc3c(cc1-2)OCO3` [Compound 3e, 13-Dodecyl-9,10-dimethoxy-5,6-dihydro-[1,3]dioxolo[4,5-g]isoquinolino[3,2-a]isoquinolin-7-ium chloride], for which the IC50 in the data set with HepG2 cells amounted to 4.24 ± 0.44 µM.
One may read the melting point as the temperature of the solid-liquid transition. On to `CCCCCCCCc1c2[n+](cc3c(OCCCN(CC)CC)c(OC)ccc13)CCc1cc3c(cc1-2)OCO3.[Br-]` [Compound 6a, 9–(3-(Diethylamino)propoxy)-10-methoxy-13-octyl-5,6-dihydro-[1,3]dioxolo[4,5-g]isoquinolino[3,2-a]isoquinolin-7-ium bromide], for which the melting point lay in the range of 142 to 144 °C. The IC50 with HepG2 cells came to 6.82 ± 0.51 µM.
Consider `CCCCCCCCc1c2[n+](cc3c(OCCCN4CCCC4)c(OC)ccc13)CCc1cc3c(cc1-2)OCO3.[Br-]` [Compound 6b, 10-Methoxy-13-octyl-9–(3-(pyrrolidin-1-yl)propoxy)-5,6-dihydro-[1,3]dioxolo[4,5-g]isoquinolino[3,2-a]isoquinolin-7-ium bromide], for which the melting point is 135 to 137 °C. The IC50 in the data set with HepG2 cells came to 7.75 ± 0.83 µM.
For `CCCCCCCCc1c2[n+](cc3c(OCCCN4CCOCC4)c(OC)ccc13)CCc1cc3c(cc1-2)OCO3.[Br-]` [Compound 6c, 10-Methoxy-9–(3-morpholinopropoxy)-13-octyl-5,6-dihydro-[1,3]dioxolo[4,5-g]isoquinolino[3,2-a]isoquinolin-7-ium bromide], the melting point lay in the range of 167 to 169 °C. In addition, the half-maximal inhibitory concentration (IC50) in the data set on HepG2 cells is 6.25 ± 0.56 µM.
In turn, `CCCCCCCCc1c2[n+](cc3c(OCCCCCCN(CC)CC)c(OC)ccc13)CCc1cc3c(cc1-2)OCO3.[Br-]` [Compound 6d, 9-((6-(Diethylamino)hexyl)oxy)-10-methoxy-13-octyl-5,6-dihydro-[1,3]dioxolo[4,5-g]isoquinolino[3,2-a]isoquinolin-7-ium bromide] had a melting point of 149 to 151 °C. Further, the IC50 in the data set on HepG2 cells turned out to be 4.75 ± 0.24 µM.
In the case of `CCCCCCCCc1c2[n+](cc3c(OCCCCCCN4CCCC4)c(OC)ccc13)CCc1cc3c(cc1-2)OCO3.[Br-]` [Compound 6e, 10-Methoxy-13-octyl-9-((6-(pyrrolidin-1-yl)hexyl)oxy)-5,6-dihydro-[1,3]dioxolo[4,5-g]isoquinolino[3,2-a]isoquinolin-7-ium bromide], the melting point fell in the range of 126 to 128 °C. In addition, the IC50 with HepG2 cells was 3.91 ± 0.36 µM.
As to `CCCCCCCCc1c2[n+](cc3c(OCCCCCCN4CCOCC4)c(OC)ccc13)CCc1cc3c(cc1-2)OCO3.[Br-]` [Compound 6f, 10-Methoxy-9-((6-morpholinohexyl)oxy)-13-octyl-5,6-dihydro-[1,3]dioxolo[4,5-g]isoquinolino[3,2-a]isoquinolin-7-ium bromide], the melting point was in the range of 164 to 166 °C. The half-maximal inhibitory concentration (IC50) in the data set on HepG2 cells came out at 1.27 ± 0.25 µM.
As to `CCCCCCCCc1c2[n+](cc3c(OCCCCCCN4CCCCC4)c(OC)ccc13)CCc1cc3c(cc1-2)OCO3.[Br-]` [Compound 6g, 10-Methoxy-13-octyl-9-((6-(piperidin-1-yl)hexyl)oxy)-5,6-dihydro-[1,3]dioxolo[4,5-g]isoquinolino[3,2-a]isoquinolin-7-ium bromide], the melting point is 132 to 134 °C. Moreover, in the data set with HepG2 cells, the IC50 is 1.64 ± 0.13 µM.
